Reference: patent US20250073234A1, “COMBINATION THERAPIES INCLUDING PARP1 INHIBITORS” (Cornell University, priority 2022, published 2025)

What was measured:
WPMY-1 cells = experiment: qPCR of CAF / stromal activation markers in WPMY-1 cells; assay type: cell-based, human
Excerpt: (§1) To knock out PARP-1 in WPMY-1 cells, single-guide RNA sequences targeting PARP-1 exon2 were purchased from Synthego and transduced into WPMY-1 cells with recombinant Streptococcus pyogenes Cas9 protein (Truecut Cas9 Protein v2, Thermo), using the Neon Transfection System 1 (Invitrogen) following the manufacturer's protocol and single clones were expanded and screened by protein immunoblotting. To perform AP1-A binding site editing in the SQSTM promoter in WPMY-1 cells, single-guide RNA sequences targeting the human AP1-A binding site (Synthego) was transduced into cells with a Cas9 protein and a single-stranded donor oligonucleotide (ssODN, IDT) using Neon Electroporation System. Single clones were expanded and screened for AP1-A editing by Sanger sequencing. A point mutation to disrupt the API enhancer element in the p62 promoter was introduced by Site Directed Mutagenesis (Stratagene). Knockdown of MCT1, MCT4, FOS, PARP1, PARP2, CD38, ATG5, and SIRT1-7 genes in WPMY-1 cells were achieved by siRNA transfection using Lipofectamine RNAiMAX Transfection Reagent (Invitrogen). Transient overexpression was achieved by transfection using X-tremeGENE HP transfection reagent (Roche). Transfected cells were examined 48 hours after transfection. Establishing stably GFP or RFP expressing cells was achieved by lentivirus-mediated transduction. Lentivirus were produced in HEK293T cells using X-tremeGENE HP transfection reagent (Roche). Virus-containing supernatants were collected 48, 72 and 96 hours after transfection, filtered to eliminate cells, and supplemented with 8 μg/ml polybrene. Cells were infected with three rounds of viral supernatants and selected with puromycin (3 μg/ml). For autophagy or proteasome inhibition, WPMY-1 cells were treated for 12 hours with 100 nM bafilomycin Al or 12 hours with 20 μM of MG132, respectively, or vehicle (DMSO). For PARP1 inhibition, WPMY-1 cells were treated with PJ34 (2 days) or Olaparib (4 days) at the doses indicated in each experiment. For MCT1 inhibition, WPMY-1 cells were treated for 48 hours with 10 μM of AZD3965. For cJUN inhibition, WPMY-1 cells were treated for 48 hours with 10 μM of SP600125. For calpains and caspases inhibition, WPMY-1 cells were treated for 48 hours with 1-20 μM of Calpeptin (Tocris) or z-VAD-FMK (Tocris), respectively. For protein synthesis inhibition, WPMY-1 cells were treated with 50 μg/ml of cycloheximide (Sigma). Conditioned media (CM) was generated by collecting supernatant on day 3. CM was transferred to a 15 ml BD Falcon tube and centrifuged at 1300 rpm for 10 minutes. The supernatant was sterile filtered using a […] (Millex-GV) with a 10 ml syringe barrel. The samples were stored at […] for future experiments. Fractionation of the CM was achieved using Amicon Ultra centrifugal filters (3KUltracel, Millipore). The supernatant was centrifuged at 4000 rpm for 1 hour. The supernatant fraction that was >3 kDa remained above the filter and that which was <3 kDa passed through to the lower chamber. The >3-kDa fraction was resuspended in DMEM to the pre-filtration volume.
Total RNA from mouse tissues, cells and cultured organoids was extracted using the TRIZOL reagent (Invitrogen) and the RNeasy Mini Kit (QIAGEN), followed by DNase treatment. After quantification using a Nanodrop 1000 spectrophotometer (Thermo Scientific), RNA was either processed for RNA-seq or reverse-transcribed using random primers and MultiScribe Reverse Transcriptase (Applied Biosystems). Gene expression was analyzed by amplifying 20 ng of the complementary DNA using the CFX96 Real Time PCR Detection System with SYBR Green Master Mix (BioRad) and primers described in Table S1. The amplification parameters were set at 95° C. for 30 seconds, 58° C. for 30 seconds, and 72° C. for 30 seconds (40 cycles total). Gene expression values for each sample were normalized to the 18s RNA.

[1] = system: p62 (SQSTM1) in WPMY-1 cells; experiment: p62/SQSTM1 expression in WPMY-1 stromal fibroblasts (immunoblot, qPCR); assay type: cell-based, human
Excerpt: as §1, with “For PARP1 inhibition, WPMY-1 cells were treated with PJ34 (2 days) or Olaparib (4 days) at the doses indicated in each experiment.” left out

NC(=O)c1ccc[n+]([C@@H]2O[C@H](COP(=O)([O-])OP(=O)(O)OC[C@H]3O[C@@H](n4cnc5c(N)ncnc54)[C@H](O)[C@@H]3O)[C@@H](O)[C@H]2O)c1 [NAD^+]
lactate-induced expression of CAF activation markers (WPMY-1 cells; lactate plus NAD+, 48 h): reverted | rescue of lactate-induced reduction in p62 ([1]; lactate-treated WPMY-1 cells, 48 h, NAD 150 μM, NR 200 μM): completely rescued the lactate-induced reduction in p62

O=C(c1cc(Cc2n[nH]c(=O)c3ccccc23)ccc1F)N1CCN(C(=O)C2CC2)CC1 [Olaparib]
CAF markers (ACTA2, SFRP1, TGFB, MMP9, HA synthases) (WPMY-1 cells; Olaparib, basal and ADT conditions): upregulated CAF markers | Has1 and Has3 expression (WPMY-1 cells; basal and ADT conditions): upregulated | Tgfb1 levels (WPMY-1 cells; basal and ADT conditions): increased levels of Tgfb1 | SPINK1 levels (WPMY-1 cells; human prostate cells, ADT conditions): highly upregulated | SQSTM1 mRNA levels ([1]; WPMY-1 cells, basal and ADT conditions): reduced SQSTM1 mRNA levels | p62 expression (protein, SQSTM1 mRNA) ([1]; WPMY-1 cells, PJ34 24 h, Olaparib 48 h): reduced the expression of p62 in a dose-dependent manner
